Assay results published in patent US20260109715A1, “IMIDAZOPYRIDINE DERIVATIVES WITH BICYCLIC STRUCTURE” (PUBLIC UNIVERSITY CORPORATION YOKOHAMA CITY UNIVERSITY, priority 2022, published 2026).

How the values were obtained:
human SMG1 enzyme = human SMG1 enzyme (Homo sapiens, UniProt Q96Q15); experiment: Measurement of SMG1 kinase activity (ADP-Glo Kinase Assay); assay type: biochemical; settings: purified human SMG1 enzyme 5 nM, Upf1 peptide substrate, ATP 4 μM; qAC50 synonymous with IC50; read-out: Test Example 1 ADP-Glo IC50
Excerpt: The SMG1 kinase inhibitory activity of a compound of the present invention or a pharmaceutically acceptable salt thereof can be measured, for example, by the method described below. Using purified human SMG1 protein and a substrate peptide as materials, the kinase activity can be measured by the ADP-Glo Kinase Assay; the SMG1 kinase inhibitory activity of a test substance can be evaluated by comparing the kinase activity in the presence and absence of the test substance.
The reaction was performed by the ADP-Glo Kinase Assay (Promega, catalog number V9102) using a 384-well plate under the conditions of an assay buffer (100 mM HEPES (pH 7.5), 50 mM NaCl, 10 mM MnCl2, 0.01% BSA, 0.1% Tween 20.5 mM TCEP). After incubating a test substance (DMSO solution; final DMSO concentration: 1%) and purified human SMG1 enzyme (Genes Dev. 2011 Jan. 15; 25(2): 153-164, produced by Daiichi Sankyo RD Novare Co., Ltd.; final concentration: 5 nM) at room temperature for 15 minutes, a substrate, Upf1 peptide (Biotin-(PEG8) QIDVALSQDSTYQG, produced by Eurofins genomics; final concentration: 8 μg/mL), and ATP (Promega: 4 μM) were added, and the mixture was reacted at room temperature for 60 minutes (see Non-Patent Literature R. Melero, et al., Structure Volume 22, Issue 8, 5 Aug. 2014, Pages 1105-1119 for the Upf1 peptide). ADP-Glo Reagent was added, and the mixture was reacted at room temperature for 40 minutes. Kinase Detection Reagent was added, and the mixture was reacted for another 30 minutes. The luminescence intensity was measured using EnVision (PerkinElmer).
The activity value (%) of the test substance-added well was calculated from the following formula, where the average luminescence intensity of the DMSO-added well was 0% and the average luminescence intensity of the SMG1 enzyme-free well was −100%.
The qAC50 (compound concentration showing 50% inhibition, synonymous with IC50) of the test substance was calculated using the activity value (%) at each concentration by Smart fit of Screener (Genedata). Smart fit is a general 4-parameter logistic regression model.

[1] = tested on: Snhg1 transcript (NMD target gene) in EMT6 murine breast cancer cell line; experiment: Measurement of NMD inhibitory activity in cells (increase in Snhg1 transcript, real-time PCR); parameters: species or system mouse; settings: Mus musculus, 6 hours treatment, concentration giving 1/2 of maximum Snhg1 fold change of positive control, read-out: Test Example 2 Cell-based Snhg1 EC50
Experimental: The NMD inhibitory activity of a compound of the present invention or a pharmaceutically acceptable salt thereof in cells can be measured, for example, by the method described below. EMT6 murine breast cancer cell line is treated with a test substance in vitro for 6 hours, and the increase in the transcript of Snhg1, a known NMD target gene, is quantified as an indicator of NMD inhibition. Quantification is performed by real-time PCR.
NMD inhibitory activity was measured by treating EMT6 murine breast cancer cell line (ATCC) with a test substance and quantifying the increase in the transcript of Snhg1, an NMD target gene (see F. Usui, et al., Scientific Reports volume 9, Article number: 1279 (2019) for the NMD target gene). That is, EMT6 cells were suspended in Waymouth's medium (Gibco, 15% FBS) and seeded in a 96-well plate at 2×10^4 cells/well. The cells were cultured for 1 day. The next day, serially diluted test substance (DMSO solution, final DMSO concentration: 2%) was added. After culturing for 6 hours, the supernatant was removed, and RNA was extracted using the RNeasy 96 kit (QIAGEN, 74182). After synthesizing cDNA using the High Capacity cDNA Reverse Transcription kit (Applied Biosystems, 4368813), the cDNA was mixed with PrimeTime Gene Expression Master Mix (Integrated DNA Technologies) and various probes, and gene expression was quantified using QuantStudio 6 Flex (Thermo Fisher Scientific Inc.). For the probe for the Snhg1 gene, which is an NMD target, Mm.PT.58.44039547 (FAM)(Integrated DNA Technologies) was used, and for the probe for the Tbp gene, which is an endogenous control, Mm00446973_m1 Tbp (VIC-PL) (Applied Biosystems) was used. The relative quantification of Snhg1 transcripts was calculated by the ΔΔCT method, using Thp as an endogenous control and setting the expression level of Snhg1 in untreated wells to 1.
A known NMD inhibitory compound (pyrimidine derivative Example 11i, Bioorg Med Chem Lett. 2012, 22(21), 6636-41) was used as a positive control drug for NMD inhibition. The NMD inhibitory activity of the test substance-added well was calculated as follows: the maximum fold change in Sngh1 expression in the positive control drug-added well relative to that in the untreated well was defined as the maximum NMD inhibitory activity, and the EC50 (compound concentration showing 50%/activity) of the test substance showing a ½-fold change was calculated by the GROWTH function of Microsoft Excel.

Sequence of human SMG1 enzyme (Q96Q15 whole entry): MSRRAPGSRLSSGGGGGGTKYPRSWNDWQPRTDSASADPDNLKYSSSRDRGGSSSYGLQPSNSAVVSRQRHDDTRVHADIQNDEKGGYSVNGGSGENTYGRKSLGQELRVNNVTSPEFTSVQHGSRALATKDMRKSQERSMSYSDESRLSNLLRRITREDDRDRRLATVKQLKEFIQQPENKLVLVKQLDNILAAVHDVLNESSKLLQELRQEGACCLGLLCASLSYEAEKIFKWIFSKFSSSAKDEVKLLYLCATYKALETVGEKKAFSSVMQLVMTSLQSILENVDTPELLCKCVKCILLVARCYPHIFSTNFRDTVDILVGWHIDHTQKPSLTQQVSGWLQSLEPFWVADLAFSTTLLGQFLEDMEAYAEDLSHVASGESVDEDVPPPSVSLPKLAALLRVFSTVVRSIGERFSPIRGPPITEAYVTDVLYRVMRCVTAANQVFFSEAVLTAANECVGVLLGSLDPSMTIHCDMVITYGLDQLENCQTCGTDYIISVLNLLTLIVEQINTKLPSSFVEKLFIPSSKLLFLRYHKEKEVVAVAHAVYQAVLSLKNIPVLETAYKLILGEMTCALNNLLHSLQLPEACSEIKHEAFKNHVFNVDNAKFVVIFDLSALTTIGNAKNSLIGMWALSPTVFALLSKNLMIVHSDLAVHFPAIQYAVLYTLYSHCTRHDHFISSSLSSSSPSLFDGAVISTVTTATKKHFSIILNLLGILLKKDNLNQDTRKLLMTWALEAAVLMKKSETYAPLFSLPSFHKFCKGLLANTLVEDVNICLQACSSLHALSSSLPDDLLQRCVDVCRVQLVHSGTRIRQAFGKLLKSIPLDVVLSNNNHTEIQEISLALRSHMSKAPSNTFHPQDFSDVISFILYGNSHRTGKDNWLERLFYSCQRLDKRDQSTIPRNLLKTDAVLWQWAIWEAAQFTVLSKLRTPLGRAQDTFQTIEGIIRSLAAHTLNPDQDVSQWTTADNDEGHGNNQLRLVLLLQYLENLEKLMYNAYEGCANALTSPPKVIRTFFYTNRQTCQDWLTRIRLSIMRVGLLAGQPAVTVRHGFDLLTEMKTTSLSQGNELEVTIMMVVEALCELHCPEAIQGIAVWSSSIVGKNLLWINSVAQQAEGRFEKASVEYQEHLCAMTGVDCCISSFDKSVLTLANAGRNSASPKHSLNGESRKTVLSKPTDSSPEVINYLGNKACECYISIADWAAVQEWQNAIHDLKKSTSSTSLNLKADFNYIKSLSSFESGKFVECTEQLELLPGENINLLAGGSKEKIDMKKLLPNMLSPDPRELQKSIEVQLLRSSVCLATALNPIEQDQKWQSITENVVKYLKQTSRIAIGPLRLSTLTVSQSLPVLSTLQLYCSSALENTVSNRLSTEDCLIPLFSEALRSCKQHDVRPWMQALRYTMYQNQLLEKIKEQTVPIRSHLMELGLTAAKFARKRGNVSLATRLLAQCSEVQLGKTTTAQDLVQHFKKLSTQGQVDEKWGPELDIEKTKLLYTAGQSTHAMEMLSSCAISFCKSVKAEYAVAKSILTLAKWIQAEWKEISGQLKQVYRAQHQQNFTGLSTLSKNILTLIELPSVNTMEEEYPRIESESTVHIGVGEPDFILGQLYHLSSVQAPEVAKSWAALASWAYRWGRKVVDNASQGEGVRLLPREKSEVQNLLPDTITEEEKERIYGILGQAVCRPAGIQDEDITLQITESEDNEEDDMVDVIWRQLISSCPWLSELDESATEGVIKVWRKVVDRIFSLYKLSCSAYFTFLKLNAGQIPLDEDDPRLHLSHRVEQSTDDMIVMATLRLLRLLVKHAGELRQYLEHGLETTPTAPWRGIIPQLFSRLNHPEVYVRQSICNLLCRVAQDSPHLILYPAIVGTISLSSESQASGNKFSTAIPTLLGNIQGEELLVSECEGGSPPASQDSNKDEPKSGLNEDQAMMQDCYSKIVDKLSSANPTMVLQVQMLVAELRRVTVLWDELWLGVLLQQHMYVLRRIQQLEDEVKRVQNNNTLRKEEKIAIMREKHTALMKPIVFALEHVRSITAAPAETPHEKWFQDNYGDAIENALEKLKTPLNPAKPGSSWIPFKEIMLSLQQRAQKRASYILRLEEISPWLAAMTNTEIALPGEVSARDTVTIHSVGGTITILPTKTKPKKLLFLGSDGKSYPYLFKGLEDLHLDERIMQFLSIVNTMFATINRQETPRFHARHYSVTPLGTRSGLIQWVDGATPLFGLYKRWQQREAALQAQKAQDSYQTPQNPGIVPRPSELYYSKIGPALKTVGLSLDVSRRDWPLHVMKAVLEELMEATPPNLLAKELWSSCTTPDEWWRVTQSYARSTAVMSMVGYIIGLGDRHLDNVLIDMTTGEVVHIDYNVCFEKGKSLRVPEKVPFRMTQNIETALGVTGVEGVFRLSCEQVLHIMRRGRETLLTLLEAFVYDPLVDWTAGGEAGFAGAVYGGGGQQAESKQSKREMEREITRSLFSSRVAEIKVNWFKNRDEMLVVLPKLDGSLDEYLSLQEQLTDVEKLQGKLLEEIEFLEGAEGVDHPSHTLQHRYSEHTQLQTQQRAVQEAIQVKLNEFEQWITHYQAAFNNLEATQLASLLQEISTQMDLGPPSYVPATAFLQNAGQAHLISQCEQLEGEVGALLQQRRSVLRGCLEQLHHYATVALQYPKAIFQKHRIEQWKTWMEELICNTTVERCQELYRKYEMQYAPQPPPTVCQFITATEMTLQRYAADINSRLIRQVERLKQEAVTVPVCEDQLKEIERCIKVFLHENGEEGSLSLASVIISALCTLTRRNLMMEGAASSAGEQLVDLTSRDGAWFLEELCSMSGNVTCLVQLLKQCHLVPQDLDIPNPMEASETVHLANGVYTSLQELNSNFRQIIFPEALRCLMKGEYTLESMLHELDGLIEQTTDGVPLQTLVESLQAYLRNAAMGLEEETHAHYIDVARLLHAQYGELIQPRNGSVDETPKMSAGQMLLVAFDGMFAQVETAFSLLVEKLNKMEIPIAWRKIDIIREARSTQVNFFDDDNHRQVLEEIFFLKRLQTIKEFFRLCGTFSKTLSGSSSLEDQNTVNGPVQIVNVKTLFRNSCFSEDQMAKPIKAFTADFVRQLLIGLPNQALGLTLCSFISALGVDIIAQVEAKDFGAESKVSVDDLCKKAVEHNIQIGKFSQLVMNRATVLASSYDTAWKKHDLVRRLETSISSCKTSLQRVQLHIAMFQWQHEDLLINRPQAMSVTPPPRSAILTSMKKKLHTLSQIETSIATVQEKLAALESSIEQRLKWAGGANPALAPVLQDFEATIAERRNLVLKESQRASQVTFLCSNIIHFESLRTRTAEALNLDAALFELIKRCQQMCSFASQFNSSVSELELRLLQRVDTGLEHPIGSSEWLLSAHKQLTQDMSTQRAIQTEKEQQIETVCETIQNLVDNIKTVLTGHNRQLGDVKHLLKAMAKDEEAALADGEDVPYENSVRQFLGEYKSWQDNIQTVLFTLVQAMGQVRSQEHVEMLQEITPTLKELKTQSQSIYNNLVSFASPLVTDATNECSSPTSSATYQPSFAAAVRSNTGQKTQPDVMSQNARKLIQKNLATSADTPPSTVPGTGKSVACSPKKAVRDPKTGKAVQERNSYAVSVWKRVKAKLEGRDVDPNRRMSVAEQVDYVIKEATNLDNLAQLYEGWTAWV

IC50 (human SMG1 enzyme) [nM]	EC50 [1] [nM]	Compound
1	82	O=c1[nH]c2ccnc(-c3cnn4c3OCCC4)c2cc1-c1nc2cnc(Cl)cc2[nH]1 [Example 95, 3-(6-chloro-1H-imidazo[4,5-c]pyridin-2-yl)-5-(6,7-dihydro-5H-pyrazolo[5,1-b][1,3]oxazin-3-yl)-1,6-naphthyridin-2(1H)-one]
0.79	75	O=c1[nH]c2ccnc(C3=CCCN(S(=O)(=O)C4CC4)C3)c2cc1-c1nc2cnc(Cl)cc2[nH]1 [Example 104, 3-(6-chloro-1H-imidazo[4,5-c]pyridin-2-yl)-5-[1-(cyclopropylsulfonyl)-1,2,5,6-tetrahydropyridin-3-yl]-1,6-naphthyridin-2(1H)-one]
2.5	87	O=c1[nH]c2ccnc(C3CCCCN(S(=O)(=O)c4ccccc4)C3)c2cc1-c1nc2cnc(Cl)cc2[nH]1 (stereo not shown) [Example 106, 3-(6-chloro-1H-imidazo[4,5-c]pyridin-2-yl)-5-[1-(phenylsulfonyl)azepan-3-yl]-1,6-naphthyridin-2(1H)-one]
0.64	30	CN1CCCN(C)c2nc(Cl)cc3[nH]c(nc23)-c2cc3c(nccc3[nH]c2=O)-c2ccc(cc2F)C1=O [Example 107, 7-Chloro-18-fluoro-10,14-dimethyl-3,8,10,14,21,25,31-heptaazahexacyclo[18.6.2.2^16,19.1^2,5.0^4,9.0^24,28]hentriacont-1(27),2,4,6,8,16,18,20(28),21,23,29-undecaen-15,26-dione]
1.3	1.1	Cc1c2cccc1-c1nccc3[nH]c(=O)c(cc13)-c1nc3c(nc(Cl)cc3[nH]1)N1CCCN(CC1)C(=O)CO2 [Example 110, 7-chloro-32-methyl-17-oxa-3,8,10,14,24,28,35-heptaazaheptacyclo[21.6.2.2^10,14.1^2,5.1^18,22.0^4,9.0^27,31]pentatriacont-1(30),2,4,6,8,18(32),19,21,23(31),24,26-undecaen-15,29-dione]
1.6	8.4	Cc1c2cccc1-c1nccc3[nH]c(=O)c(cc13)-c1nc3c(nc(Cl)cc3[nH]1)NCC(C)(C)NC(=O)CO2 [Example 111, 7-chloro-12,12,31-trimethyl-16-oxa-3,8,10,13,23,27,32-heptaazahexacyclo[20.6.2.1^2,5.1^17,21.0^4,9.0^26,30]dotriacont-1(29),2,4,6,8,17(31),18,20,22(30),23,25-undecaen-14,28-dione]
1.3	510	O=C1CS(=O)(=O)c2cccc(c2)-c2nccc3[nH]c(=O)c(cc23)-c2nc3c(nc(Cl)cc3[nH]2)N2CCCN1CC2 [Example 112, 7-chloro-17-thia-3,8,10,14,24,28,35-heptaazaheptacyclo[21.6.2.2^10,14.1^2,5.1^18,22.0^4,9.0^27,31]pentatriacont-1(30)2,4,6,8,18(32),19,21,23(31),24,26-undecaen-15,29-dione17,17-dioxide]
0.64	58	Cc1nn2c(C)c1-c1nccc3[nH]c(=O)c(cc13)-c1nc3c(nc(Cl)cc3[nH]1)NCC(C)(C)CNC(=O)C2 [Example 115, 7-chloro-12,12,19,30-tetramethyl-3,8,10,14,17,18,22,26,31-nonaazahexacyclo[19.6.2.1^2,5.1^17,20.0^4,9.0^25,29]hentriacont-1(28),2,4,6,8,18,20(30),21(29),22,24-decaen-15,27-dione]

Further lines, the compound ahead of its results:

Compound	IC50 (human SMG1 enzyme) [nM]	EC50 [1] [nM]
Cc1c(-c2nccc3[nH]c(=O)c(-c4nc5cnc(Cl)cc5[nH]4)cc23)c(C2CC2)nn1CC(F)F [Example 93, 3-(6-chloro-1H-imidazo[4,5-c]pyridin-2-yl)-5-[3-cyclopropyl-1-(2,2-difluoroethyl)-5-methyl-1H-pyrazol-4-yl]-1,6-naphthyridin-2(1H)-one]	1.2	81
Cc1c(-c2nccc3[nH]c(=O)c(-c4nc5cnc(Cl)cc5[nH]4)cc23)c(C(F)F)nn1C(C)C [Example 94, 3-(6-chloro-1H-imidazo[4,5-c]pyridin-2-yl)-5-[3-(difluoromethyl)-5-methyl-1-(propan-2-yl)-1H-pyrazol-4-yl]-1,6-naphthyridin-2(1H)-one]	1.5	60
O=C1Nc2ccnc(-c3ccccc3Cl)c2CN1c1nc2cnc(Cl)cc2[nH]1 [Example 102, 3-(6-chloro-1H-imidazo[4,5-c]pyridin-2-yl)-5-(2-chlorophenyl)-3,4-dihydropyrido[4,3-d]pyrimidin-2(1H)-one]	2.8	76
COc1ccccc1-c1nccc2c1CN(c1nc3cnc(Cl)cc3[nH]1)C(=O)N2 [Example 103, 3-(6-chloro-1H-imidazo[4,5-c]pyridin-2-yl)-5-(2-methoxyphenyl)-3,4-dihydropyrido[4,3-d]pyrimidin-2(1H)-one]	3.3	71
O=C(C1CC1)N1CCC=C(c2nccc3[nH]c(=O)c(-c4nc5cnc(Cl)cc5[nH]4)cc23)C1 [Example 105, 3-(6-chloro-1H-imidazo[4,5-c]pyridin-2-yl)-5-[1-(cyclopropylcarbonyl)-1,2,5,6-tetrahydropyridin-3-yl]-1,6-naphthyridin-2(1H)-one]	1.5	59
Cc1c2cccc1-c1nccc3[nH]c(=O)c(cc13)-c1nc3c(nc(Cl)cc3[nH]1)N(C)CCCN(C)C2=O [Example 108, 7-chloro-10,14,30-trimethyl-3,8,10,14,22,26,31-heptaazahexacyclo[19.6.2.1^2,5.1^16,20.0^4,9.0^25,29]hentriacont-1(28),2,4,6,8,16(30),17,19,21(29),22,24-undecaen-15,27-dione]	1	2
Cc1cc2ccc1-c1nccc3[nH]c(=O)c(cc13)-c1nc3c(nc(Cl)cc3[nH]1)N(C)CCC(=O)N(C)C2 [Example 109, 7-chloro-10,14,18-trimethyl-3,8,10,14,21,25,31-heptaazahexacyclo[18.6.2.2^16,19.1^2,5.0^4,9.0^24,28]hentriacont-1(27),2,4,6,8,16,18,20(28),21,23,29-undecaen-13,26-dione]	2.3	165
Cc1nn2c(C)c1-c1nccc3[nH]c(=O)c(cc13)-c1nc3c(nc(Cl)cc3[nH]1)N(C)CCCCN(C)C(=O)C2 [Example 113, 7-chloro-10,15,20,31-tetramethyl-3,8,10,15,18,19,23,27,32-nonaazahexacyclo[20.6.2.1^2,5.1^18,21.0^4,9 .0^26,30]dotriacont-1(29),2,4,6,8,19,21(31),22(30),23,25-decaen-16,28-dione]	0.38	8.3
Cc1nn2c(C)c1-c1nccc3[nH]c(=O)c(cc13)-c1nc3c(nc(Cl)cc3[nH]1)N(C)CCCN(C)C(=O)C2C (stereo not shown) [Example 114, 7-chloro-10,14,16,19,30-pentamethyl-3,8,10,14,17,18,22,26,31-nonaazahexacyclo[19.6.2.1^2,5.1^17,20.0^4,9.0^25,29]hentriacont-1(28),2,4,6,8,18,20(30),21(29),22,24-decaen-15,27-dione]	1.1	3.2
